Reference: patent US20040157818A1, “Cxcr4-antagonistic drugs composed of nitrogen-containing compound” (priority 2001, published 2004)

How the values were obtained:
ICR mice = assay: Acute toxicity in ICR mice; type: in vivo; conditions: 50 mg/kg intraperitoneally twice a day for 4 days; dead mice after 5 days; male ICR mice, three animals per group
Experimental: The CXCR4-antagonist or the salt thereof of the present invention is intraperitoneally injected in to an ICR mouse ([…]) twice a day for 4 consecutive days, and no lethal case was found after 5 days. Therefore, the conclusion can be drawn that there is no acute toxicity.
7-week old ICR mice (male) (obtained from Charls River Japan Inc) were divided into three-animals for each groups. After domestication-breeding for 1 week, the compound of the coresponding Synthesis Example was dissolved in a physiological salt solution or distilled water and the solution was then intraperitoneally dosed twice a day for 4 days (50 mg/kg in dosage).

CXCR4 = target: T1, CXCR4 (Homo sapiens, UniProt P61073); assay: CXCR4-binding inhibition activity (125I-SDF-1α binding to MT-4 cells); conditions: 0.1 μM test material, ligand 125I-SDF-1α, 2 hours under ice cold condition
T1 construct: endogenous in cells; host or cells: MT-4 cells
Experimental: CXCR4-Binding Inhibition Activity
MT-4 cells (5×10^6/0.2 ml/well) were cultured on a 24-well microtiter plate. After the cells were incubated for 24 hours at 37° C. in a carbon dioxide gas incubator, a culture mediumwas replaced with a buffer solution (RPMI-1640 containing 0.1% BSA). Together with a ligand ^125I-SDF-1α (specific activity: 2,2000 Ci/mmol; DAIICHI PURE CHEMICALS CO. ,LTD. (Tokyo)), various concentrations of test materials were subjected to a binding reaction for 2 hours under ice cold condition.

[1] = tested on: type-II collagen-induced arthritis mouse; assay: Drug efficacy test on type-II collagen-induced arthritis (CIA) mouse; type: in vivo
Experimental: Drug Efficacy Test of the Compound No. 86 on Type-II Collagen-Induced Arthritis Mouse
Using the type-II collagen-induced mouse arthritis (CIA) model, which was a model of articular rheumatism (RA), the compound No. 86 was tested for drug efficacy.
24 of 6-week-oldmale DBA/l mice (obtained from Charles River Japan, Inc.) were used as test animal and were divided in groups of 12 animals, that is, a test group of and a control group, such that the average weights of the respective groups were almost equal to each other.
An initial-sensitizing antigen solution used was a liquid of adjusted emulsion prepared by dissolving chicken type-II collagen (obtained from Collagen Gijyutu Kensyuukai) in 0.01N acetic acid (4mg/mL) andthenmixingwith an equal amount of Freund's complete adjuvant (manufactured by Difco BRL), and an additional-sensitizing antigen solution used was a liquid of emulsion prepared by dissolving chicken type-II collagen in 0.01N acetic acid (8 mg/mL), and then mixing with an equal amount of Freund's complete adjuvant.
An initial sensitization was performed by endodermic injection of 50 μl of the initial-sensitizing antigen solution (containing 100 μg of chicken type-II collagen) into the tail of the mouse. The additional sensitization was performed after 21 days from the initial sensitization by endodermic injection of 50 μl of the additional-sensitizing antigen solution (containing 200 μg of chicken type-II collagen) into the tail of the mouse.
The compound No. 86, which was provided as a test material, was provided as one at a concentration of 5 mg/mL prepared by dissolving ditartrate thereof in a physiological saline solution. The test material was administered such that the test material was interperitoneally administered once a day for consecutive 17 days from 2 days before the additional sensitization (an amount of administered liquid was 10 mL/kg). In addition, for the control group, the test material was administered by dissolving ditartrate in a physiological saline solution so as to make the concentration of tartaric acid of 1.7 mg/mL because a dosage solvent is ditartrate for the test material compound No. 86.
Amacroscopic observation on extremities after the additional sensitization was performed once a day. A scoring of the macroscopic observation was according to the following criteria and judged on each of extremities with respect to edema of foot. The total of the scores of extremities was provided as an index of the onset of symptoms and pharmacometrics with respect to arthritis. In addition, the total of the numbers of fingers of each extremity on which edema was observed was also used as an index of pharmacometrics.
In addition, the scores in FIG. 6 were defined as follows: […]

T1 sequence (P61073 whole entry): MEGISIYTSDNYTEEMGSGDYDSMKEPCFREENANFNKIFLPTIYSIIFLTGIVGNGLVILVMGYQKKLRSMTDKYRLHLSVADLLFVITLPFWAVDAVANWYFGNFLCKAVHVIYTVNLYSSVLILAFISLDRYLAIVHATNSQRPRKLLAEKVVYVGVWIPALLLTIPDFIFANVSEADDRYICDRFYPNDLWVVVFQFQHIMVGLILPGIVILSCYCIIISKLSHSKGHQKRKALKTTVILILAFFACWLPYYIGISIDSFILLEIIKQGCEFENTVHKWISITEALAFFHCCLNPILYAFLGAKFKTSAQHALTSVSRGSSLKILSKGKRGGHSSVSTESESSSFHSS

SMILES	Number of dead mice (ICR mice)	inhibition rate (binding-inhibition % at 0.1 μM) (CXCR4)	further results
O=C(N[C@@H](CCCNC1CCCc2cccnc21)C(=O)NCc1cccc2ccccc12)c1ccc(CNCc2ccccn2)cc1 (stereo partly drawn) [Compound No. 65, (2S)-2-(4-(N-2-picolylaminomethyl)benzoylamino)-5-((5,6,7,8-tetrahydroquinolin-8-yl)amino)valerate 1-naphthalenemethylamide]	0/3	75.1%	–
Cn1ccnc1CNCc1ccc(C(=O)N[C@@H](CCCNC2CCCc3cccnc32)C(=O)NCc2cccc3ccccc23)cc1 (stereo partly drawn) [Compound No. 96, (2S)-2-((1-methylimidazol-2-ylmethyl)aminomethyl) benzoylamino-5-(5,6,7,8-tetrahydroquinolyl-8-yl)amino valerate 1-naphthalene methyleneamide]	0/3	96.8%	–
C[C@H](NC(=O)[C@H](CCCNC(=N)N)NC(=O)c1ccc(CNCc2ccccn2)c2ccccc12)c1cccc2ccccc12 [Compound No. 99, N^α-(4-(N-2-picolylaminomethyl)naphthoyl)-L-arginine(1′S)-1′-(1-naphthyl)ethylamide]	0/3	76.4%	–
C[C@H](NC(=O)[C@H](CCCNC1CCCc2cccnc21)NC(=O)c1ccc(CNCc2ncc[nH]2)cc1)c1cccc2ccccc12 (stereo partly drawn) [Compound No. 106]	0/3	100.0%	–
C[C@H](NC(=O)[C@H](CCCNC1CCCc2cccnc21)NC(=O)c1ccc(CNCc2nccn2C)cc1)c1cccc2ccccc12 (stereo partly drawn) [Compound No. 107]	0/3	96.5%	–
C[C@H](NC(=O)[C@H](CCCNC(=N)N)NC(=O)c1ccc(CNCc2ncc[nH]2)c2ccccc12)c1cccc2ccccc12 [Compound No. 49, N^α-(4-(imidazol-2-ylmethyl)aminomethylnaphthoyl)-L-arginine (1′S)-(1′-(1-naphthyl)ethyl)amide]	0/3	97.8%	–
C[C@H](NC(=O)[C@H](CCCN=C(N)N)NC(=O)c1ccc(CNCc2ccccn2)cc1)c1cccc2ccccc12 [Compound No. 86, N^α-(4-(N-2-picolylaminomethyl)benzoyl)-L-arginine(1′S)-1′-(1-naphthyl)ethylamide]	0/3	91.4%	lesion score of extremities (arthritis score) ([1]; 5 mg/mL, 10 mL/kg intraperitoneally once a day for 17 days from 2 days before additional sensitization, observed 12 days after additional sensitization, vs control group): tended to inhibit a chronological increase; change in animal body weights ([1]; 5 mg/mL, 10 mL/kg intraperitoneally once a day for 17 days, CIA mice): no influence was found; number of edematous fingers (chronological increase) ([1]; 5 mg/mL, 10 mL/kg intraperitoneally once a day for 17 days, observed 12 days after additional sensitization, vs control group): tended to inhibit a chronological increase; increase in number of edematous fingers ([1]; after 12 days from the additional sensitization, vs control group): significantly inhibited
O=C(N[C@@H](CCCNC1CCCc2cccnc21)C(=O)NCCc1c[nH]c2ccccc12)c1ccc(CNCc2ccccn2)c2ccccc12 (stereo partly drawn) [Compound No. 92, (2S)-2-(4-(N-2-picolylaminomethyl)naphthoyl)amino-5-(5,6,7,8-tetrahydroquinolin-8-yl)amino valerate 2-(3-indolyl)ethylamide]	0/3	–	–
O=C(N[C@@H](CCCN[C@H]1CCCc2cccnc21)C(=O)NCc1cccc2ccccc12)c1ccc(CNCc2ccccn2)c2ccccc12 [Compound No. 105, (2S)-2-(4-(N-2-picolylaminomethyl)naphthalene-1-carbonyl)amino-5-((8S)-5,6,7,8-tetrahydroquinolin-8-yl)amino valerate 1-naphthylmethylamide]	–	91.9%	–
C[C@H](NC(=O)[C@H](CCCNC1CCCc2cccnc21)NC(=O)c1ccc(CNCc2ncc[nH]2)c2ccccc12)c1cccc2ccccc12 (stereo partly drawn) [Compound No. 57]	0/3	97.8%	–
O=C(N[C@@H](CCCNC1CCCc2cccnc21)C(=O)NCc1cccc2ccccc12)c1ccc(CNCc2ncc[nH]2)cc1 (stereo partly drawn) [Compound No. 39, (2S)-2-(4-((N-imidazol-2-ylmethyl)aminomethyl)benzoylamino)-5-(5,6,7,8-tetrahydroquinolin-8-ylamino)valerate 1-naphthalenemethylamide]	0/3	–	–
O=C(N[C@@H](CCCNC1CCCc2cccnc21)C(=O)NCc1cccc2ccccc12)c1ccc(CNCc2ncc[nH]2)s1 (stereo partly drawn) [Compound No. 16]	–	75.3%	–
O=C(N[C@@H](CCCNCc1ccccn1)C(=O)NCc1cccc2ccccc12)c1ccc(CNCc2ncc[nH]2)c2ccccc12 [Compound No. 40, (S)-2-(4-((N-imidazol-2-ylmethyl)aminomethyl)naphthoylamino)-5-(2-picolylamino)valerate 1-naphthalenemethylamide]	–	85.3%	–
C[C@H](NC(=O)[C@H](CCCNC(=N)N)NC(=O)c1ccc(CNCc2nccn2C)c2ccccc12)c1cccc2ccccc12 [Compound No. 97, N^α-(4-((N-(1-methylimidazol-2-ylmethyl)amino)methyl)naphthalene-1-carbonyl)-L-arginine(1′S)-1′-(1-naphthyl)ethylamide]	0/3	100.0%	–
O=C(N[C@@H](CCCNC1CCCc2cccnc21)C(=O)NCc1cccc2ccccc12)c1ccc(CNCc2ncc[nH]2)c2ccccc12 (stereo partly drawn) [Compound No. 41, (2S)-2-(4-((N-imidazol-2-ylmethyl)aminomethyl)naphthoylamino)-5-(5,6,7,8-tetrahydroquinolin-8-ylamino)valerate 1-naphthalenemethylamide]	0/3	97.9%	–
O=C(N[C@@H](CCCN[C@@H]1CCCc2cccnc21)C(=O)NCc1cccc2ccccc12)c1ccc(CNCc2ccccn2)c2ccccc12 [Compound No. 55, (2S)-2-(4-(N-2-picolylaminomethyl)naphthoylamino)-5-((8R)-5,6,7,8-tetrahydroquinolin-8-ylamino)valerate 1-naphthalenemethylamide]	–	94.6%	–
